For the assay, the target named is CDK2/Cyclin E1 (Homo sapiens (Human), UniProt P24941). Put plainly: CDK2/Cyclin E1 HTRF enzyme activity assay (Example A). Format: biochemical. To be noted: 1 mM ATP. The method, then:
Assays were conducted in white 384-well polystyrene plates in a final reaction volume of 8 μL. […] HTRF signals were read after 1 hour at room temperature on a PHERAstar FS plate reader (BMG Labtech). Data was analyzed with IDBS XLFit and GraphPad Prism 5.0 software using a three or four parameter dose response curve to determine IC50 for each compound.
Background: TR-FRET usually uses a lanthanide donor and a delayed reading to cut background.

A value given as a limit tells only on which side of the number the result lay.

For `CS(=O)(=O)N1CCC(Nc2ncc(C(F)(F)F)c(-c3cn(-c4ccc(CN5CC(F)(F)C5)cc4Cl)cn3)n2)CC1` [Example 193, 4-(1-(2-Chloro-4-((3,3-difluoroazetidin-1-yl)methyl)phenyl)-1H-imidazol-4-yl)-N-(1-(methylsulfonyl)-piperidin-4-yl)-5-(trifluoromethyl)-pyrimidin-2-amine], the IC50 is ≤ 50 nM.

Turning to `CC1(O)CN(Cc2ccc(-n3cnc(-c4nc(NC5CCN(S(C)(=O)=O)CC5)ncc4C(F)(F)F)c3)c(Cl)c2)C1` [Example 194, 1-(3-Chloro-4-(4-(2-((1-(methylsulfonyl)-piperidin-4-yl)amino)-5-(trifluoromethyl)-pyrimidin-4-yl)-1H-imidazol-1-yl)benzyl)-3-methylazetidin-3-ol], the IC50 was ≤ 50 nM.

Turning to `COC1CN(Cc2ccc(-n3cnc(-c4nc(NC5CCN(S(C)(=O)=O)CC5)ncc4C(F)(F)F)c3)c(Cl)c2)C1` [Example 195, 4-(1-(2-Chloro-4-((3-methoxyazetidin-1-yl)methyl)phenyl)-1H-imidazol-4-yl)-N-(1-(methylsulfonyl)-piperidin-4-yl)-5-(trifluoromethyl)-pyrimidin-2-amine], the IC50 was ≤ 50 nM.

In the case of `CC1(F)CN(Cc2ccc(-n3cnc(-c4nc(NC5CCN(S(C)(=O)=O)CC5)ncc4C(F)(F)F)c3)c(Cl)c2)C1` [Example 196, 4-(1-(2-Chloro-4-((3-fluoro-3-methyl-azetidin-1-yl)methyl)-phenyl)-1H-imidazol-4-yl)-N-(1-(methyl-sulfonyl)piperidin-4-yl)-5-(trifluoromethyl)-pyrimidin-2-amine], the IC50 is ≤ 50 nM.

On to `CS(=O)(=O)N1CCC(Nc2ncc(C(F)(F)F)c(-c3cn(-c4ccc(CN5CC(F)C5)cc4Cl)cn3)n2)CC1` [Example 197, 4-(1-(2-Chloro-4-((3-fluoroazetidin-1-yl)methyl)phenyl)-1H-imidazol-4-yl)-N-(1-(methyl-sulfonyl)piperidin-4-yl)-5-(trifluoro-methyl)pyrimidin-2-amine], for which the IC50 was ≤ 50 nM.

As for `CS(=O)(=O)N1CCC(Nc2ncc(C(F)(F)F)c(-c3cn(-c4ccc(CN5CC(C#N)C5)cc4Cl)cn3)n2)CC1` [Example 198, 1-(3-Chloro-4-(4-(2-((1-(methylsulfonyl)-piperidin-4-yl)amino)-5-(trifluoromethyl)-pyrimidin-4-yl)-1H-imidazol-1-yl)benzyl)-azetidine-3-carbonitrile], the 50% inhibitory concentration (IC50) is ≤ 50 nM.

Take `CS(=O)(=O)N1CCC(Nc2ncc(C(F)(F)F)c(-c3cn(-c4ccc(CN5CC(O)C5)cc4Cl)cn3)n2)CC1` [Example 199, 1-(3-Chloro-4-(4-(2-((1-(methylsulfonyl)-piperidin-4-yl)amino)-5-(trifluoromethyl)-pyrimidin-4-yl)-1H-imidazol-1-yl)benzyl)-azetidin-3-ol]: the IC50 was ≤ 50 nM.

Turning to `CC1(C)CN(Cc2ccc(-n3cnc(-c4nc(NC5CCN(S(C)(=O)=O)CC5)ncc4C(F)(F)F)c3)c(Cl)c2)C1` [Example 200, 4-(1-(2-Chloro-4-((3,3-dimethyl-azetidin-1-yl)methyl)-phenyl)-1H-imidazol-4-yl)-N-(1-(methyl-sulfonyl)piperidin-4-yl)-5-(trifluoromethyl)-pyrimidin-2-amine], the 50% inhibitory concentration (IC50) was ≤ 50 nM.

Consider `CC1(CO)CCN1Cc1ccc(-n2cnc(-c3nc(NC4CCN(S(C)(=O)=O)CC4)ncc3C(F)(F)F)c2)c(Cl)c1` (stereo not shown) [Example 201, (1-(3-Chloro-4-(4-(2-((1-(methylsulfonyl)-piperidin-4-yl)amino)-5-(trifluoromethyl)-pyrimidin-4-yl)-1H-imidazol-1-yl)benzyl)-2-methylazetidin-2-yl)methanol], for which the concentration for half-maximal inhibition (IC50) is ≤ 50 nM.

As for `CS(=O)(=O)N1CCC(Nc2ncc(C(F)(F)F)c(-c3cn(-c4ccc(CN5CC6(CC(O)C6)C5)cc4Cl)cn3)n2)CC1` [Example 202, 2-(3-Chloro-4-(4-(2-((1-(methylsulfonyl)-piperidin-4-yl)amino)-5-(trifluoromethyl)-pyrimidin-4-yl)-1H-imidazol-1-yl)benzyl)-2-azaspiro[3.3]heptan-6-ol], the IC50 is ≤ 50 nM.

`CC(C)(O)C1CN(Cc2ccc(-n3cnc(-c4nc(NC5CCN(S(C)(=O)=O)CC5)ncc4C(F)(F)F)c3)c(Cl)c2)C1` [Example 203, 2-(1-(3-Chloro-4-(4-(2-((1-(methyl-sulfonyl)piperidin-4-yl)amino)-5-(trifluoromethyl)-pyrimidin-4-yl)-1H-imidazol-1-yl)-benzyl)azetidin-3-yl)propan-2-ol]: the half-inhibitory concentration (IC50) was ≤ 50 nM.

As to `C[C@]1(O)CCN(Cc2ccc(-n3cnc(-c4nc(NC5CCN(S(C)(=O)=O)CC5)ncc4C(F)(F)F)c3)c(Cl)c2)C1` [Example 204, (S)-1-(3-Chloro-4-(4-(2-((1-(methyl-sulfonyl)piperidin-4-yl)amino)-5-(trifluoromethyl)-pyrimidin-4-yl)-1H-imidazol-1-yl)-benzyl)-3-methyl-pyrrolidin-3-ol], the IC50 is ≤ 50 nM.

As for `CS(=O)(=O)N1CCC(Nc2ncc(C(F)(F)F)c(-c3cn(-c4ccc(CN5CC[C@@H](O)C5)cc4Cl)cn3)n2)CC1` [Example 205], the half-maximal inhibitory concentration (IC50) is ≤ 50 nM.

Regarding `CS(=O)(=O)N1CCC(Nc2ncc(C(F)(F)F)c(-c3cn(-c4ccc(CN5CC[C@H](O)C5)cc4Cl)cn3)n2)CC1` [Example 206, (S)-1-(3 -Chloro-4-(4-(2-((1-(methyl-sulfonyl)piperidin-4-yl)amino)-5-(trifluoromethyl)-pyrimidin-4-yl)-1H-imidazol-1-yl)benzyl)-pyrrolidin-3-ol], the IC50 was ≤ 50 nM.

As for `CO[C@@H]1CCN(Cc2ccc(-n3cnc(-c4nc(NC5CCN(S(C)(=O)=O)CC5)ncc4C(F)(F)F)c3)c(Cl)c2)C1` [Example 207, (R)-4-(1-(2-Chloro-4-((3-methoxypyrrolidin-1-yl)methyl)phenyl)-1H-imidazol-4-yl)-N-(1-(methylsulfonyl)-piperidin-4-yl)-5-(trifluoromethyl)-pyrimidin-2-amine], the concentration for half-maximal inhibition (IC50) was ≤ 50 nM.

For the molecule `CS(=O)(=O)N1CCC(Nc2ncc(C(F)(F)F)c(-c3cn(-c4ccc(CN5CCCCC5)cc4Cl)cn3)n2)CC1` [Example 208], the IC50 was ≤ 50 nM.

Consider `CN1CCN(Cc2ccc(-n3cnc(-c4nc(NC5CCN(S(C)(=O)=O)CC5)ncc4C(F)(F)F)c3)c(Cl)c2)CC1` [Example 209, 4-(1-(2-Chloro-4-((4-methylpiperazin-1-yl)methyl)phenyl)-1H-imidazol-4-yl)-N-(1-(methylsulfonyl)-piperidin-4-yl)-5-(trifluoromethyl)-pyrimidin-2-amine], for which the concentration for half-maximal inhibition (IC50) is ≤ 50 nM.

Regarding `CS(=O)(=O)N1CCC(Nc2ncc(C(F)(F)F)c(-c3cn(-c4ccc(CN5CCOCC5)cc4Cl)cn3)n2)CC1` [Example 210, 4-(1-(2-Chloro-4-(morpholinomethyl)-phenyl)-1H-imidazol-4-yl)-N-(1-(methyl-sulfonyl)piperidin-4-yl)-5-(trifluoro-methyl)pyrimidin-2-amine], the IC50 is ≤ 50 nM.

On to `CN1CCN(Cc2ccc(-n3cnc(-c4nc(NC5CCN(S(C)(=O)=O)CC5)ncc4C(F)(F)F)c3)c(Cl)c2)CC1=O` [Example 211, 4-(3-Chloro-4-(4-(2-((1-(methylsulfonyl)-piperidin-4-yl)amino)-5-(trifluoromethyl)-pyrimidin-4-yl)-1H-imidazol-1-yl)benzyl)-1-methylpiperazin-2-one], for which the 50% inhibitory concentration (IC50) was ≤ 50 nM.

Usually IC50 stands for the point on the concentration scale where inhibition reaches its midpoint. Low readings indicate inhibition by little substance, high ones a need for much substance.

The values are drawn from US11427567B2, “Imidazolyl pyrimidinylamine compounds as CDK2 inhibitors” (Incyte Corporation, priority 2019, dated 2022).
